Test [1] concerns BuChE. Conditions: cited from earlier work.
The test system of test [2] is AChE. The conditions noted are these: cited from earlier work.
Test [3] concerns the target AChE (Electrophorus electricus, UniProt O42275). Conditions: Lineweaver-Burk plot. The protocol:
The plots were assessed by a weighted least-squares analysis that assumed the variance of velocity (v) to be a constant percentage of v for the entire data set.

The structures appear in SMILES notation. “Also recorded” adds a separate entry of the source. Read-outs that look alike come from different tables or passages of the source.

AChE (Electrophorus electricus, UniProt O42275), sequence (O42275 24-633): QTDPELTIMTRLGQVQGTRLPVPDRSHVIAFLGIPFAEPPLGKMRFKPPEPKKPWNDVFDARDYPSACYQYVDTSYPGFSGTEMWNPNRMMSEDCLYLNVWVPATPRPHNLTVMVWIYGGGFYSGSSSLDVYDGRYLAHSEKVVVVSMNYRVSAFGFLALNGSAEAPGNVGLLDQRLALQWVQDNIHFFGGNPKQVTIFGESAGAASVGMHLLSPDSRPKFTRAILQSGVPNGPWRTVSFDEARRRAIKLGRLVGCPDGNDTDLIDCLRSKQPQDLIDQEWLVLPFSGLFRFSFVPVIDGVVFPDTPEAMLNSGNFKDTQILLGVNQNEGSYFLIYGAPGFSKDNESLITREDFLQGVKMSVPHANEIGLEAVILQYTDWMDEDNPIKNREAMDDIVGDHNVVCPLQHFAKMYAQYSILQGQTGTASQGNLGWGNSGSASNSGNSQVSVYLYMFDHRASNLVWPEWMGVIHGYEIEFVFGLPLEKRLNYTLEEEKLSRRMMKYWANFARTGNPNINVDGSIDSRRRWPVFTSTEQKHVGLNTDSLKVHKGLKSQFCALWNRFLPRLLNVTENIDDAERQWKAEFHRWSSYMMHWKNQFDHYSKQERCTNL

`Nc1c2c(nc3ccccc13)CCCC2` [Tacrine]: in test [1], the IC50 is […].
`COc1cc2c(cc1OC)C(=O)C(CC1CCN(Cc3ccccc3)CC1)C2` (centres unmarked) [Donepezil]: the IC50 in test [1] is […].
`CCN(C)C(=O)Oc1cccc([C@H](C)N(C)C)c1` [Rivastigmine]: the Selectivity index in test [2] (IC50 (BuChE)/IC50 (AChE)) is […]. The IC50 is […] in test [2] and […] in test [1].
For `CCN(CC)CC(=O)Nc1nc(-c2cc3ccccc3oc2=O)cs1` [Compound 6c, 2-(Diethylamino)-N-(4-(2-oxo-2H-chromen-3-yl)thiazol-2-yl)acetamide], the “type of AChE inhibition” value in test [3] is “mixed-type inhibitor; also recorded: mixed-type inhibition”.
As for `COc1cccc2cc(-c3csc(NC(=S)Nc4ccc(Cl)cc4)n3)c(=O)oc12` [PBI-2], the IC50 in test [2] (authors' previous work) was 4.58 µM.
Take `O=C(Nc1nc(-c2cc3cc(Br)ccc3o2)cs1)Nc1ccccc1F` [PBI-1]: in test [2] (authors' previous work), the IC50 is 3.85 µM.

Broadly, the IC50 is the concentration that inhibits the measured activity by half.

These data come from article PMC6010140, “Design, synthesis and docking study of novel coumarin ligands as potential selective acetylcholinesterase inhibitors” (Journal of Enzyme Inhibition and Medicinal Chemistry, 2017).
